According to US7714135B2, “Tetrahydropyridothiophenes for the treatment of proliferative diseases such as cancer” (4SC AG, priority 2005, dated 2010):
pIC50: −log10 of the molar value.

Key:
[1] = system: RKO (RKOp27) human colon adenocarcinoma cells; assay: Alamar Blue cell viability assay, anti-proliferative/cytotoxic activity on proliferating (uninduced) RKOp27 cells; type: cell-based; details: RKOp27 subclone without inducer, 72 hours incubation, read-out: IC50 RKO p27 uninduced (proliferating)
Procedure: The anti-proliferative/cytotoxic activity of the compounds described herein, can be tested on subclones of RKO (RKOp27) human colon adenocarcinoma cells (Schmidt et al., Oncogene 19, 2423-2429; 2000) using the Alamar Blue cell viability assay (described in O'Brien et al. Eur J Biochem 267, 5421-5426, 2000). The compounds are dissolved as 20 mM solutions in dimethylsulfoxide (DMSO) and subsequently diluted in semi-logarithmic steps. DMSO dilutions are further diluted 1:100 into Dulbecco's modified Eagle's medium (DMEM) containing 10% fetal calf serum to a final concentration twice as much as the final concentration in the test. RKO subclones are seeded into 96 well flat bottom plates at a density of 4000 cells per well in a volume of 50 μl per well. 24 hours after seeding the 50 μl each of the compound dilutions in DMEM medium are added into each well of the 96 Well plate. Each compound dilution is tested as quadruplicates. Wells containing untreated control cells are filled with 50 μl DMEM medium containing 1% DMSO. The cells are then incubated with the substances for 72 hours at 37° C. in a humidified atmosphere containing 5% carbon dioxide. To determine the viability of the cells, 10 μl of an Alamar Blue solution (Biosource) are added and the fluorescence is measured at an extinction of 544 nm and an emission of 590 nm. For the calculation of the cell viability the emission value from untreated cells is set as 100% viability and the emission rates of treated cells are set in relation to the values of untreated cells. Viabilities are expressed as % values.
The corresponding IC50 values of the compounds for anti-proliferative/cytotoxic activity are determined from the concentration-effect curves.
Representative IC50 values for anti-proliferation/cytotoxicity determined in the mentioned assay follow from the following table A, in which the numbers of the compound correspond to the numbers of the examples.

[2] = system: RKO colon adenocarcinoma cells (RKOp27) arrested by the expression of ectopic p27Kip1; assay: Alamar Blue cell viability assay on RKOp27 cells arrested by Ponasterone A-induced p27Kip1 expression (cell cycle specific mode of action); type: cell-based; details: Homo sapiens, RKOp27 subclone induced with 10 μM Ponasterone A, 72 hours incubation, read-out: IC50 RKO p27 induced (arrested)
Procedure: To determine the cell cycle specific mode of action, subclones of RKO colon adenocarcinoma cells (RKOp27 or RKOp21 as described by Schmidt et al. in Oncogene 19, 2423-2429; 2000) are seeded into 96 well flat bottom plates at a density of 16000 cells per well in a volume of 50 μl per well in DMEM growth medium with 10% FCS containing 10 μM Ponasterone A. 24 hours after seeding the 50 μl each of the compound dilutions in DMEM medium are added into each well of the 96 Well plate. Each compound dilution is tested as quadruplicates. Wells containing untreated control cells are filled with 50 μl DMEM medium containing 1% DMSO. The cells are then incubated with the substances for 72 hours at 37° C. in a humidified atmosphere containing 5% carbon dioxide. To determine the viability of the cells, 10 μl of an Alamar Blue solution (Biosource) are added and the fluorescence was measured at an extinction of 544 nm and an emission of 590 nm. For the calculation of the cell viability the emission value from untreated cells is set as 100% viability and the emission rates of treated cells are set in relation to the values of untreated cells. Viabilities are expressed as % values. Viability is compared of proliferating cells grown in the absence of the inducer Ponasterone A, versus viability of cells arrested by the expression of ectopic p27Kip1 induced by Ponasterone A.

Row | pIC50 [2] | Structure (SMILES) | pIC50 [1]
1 | < 4.00 | N#Cc1c(NC(=O)CCc2ccco2)sc2c1CCN(C(=O)OCCc1ccccn1)C2 [Example 45, 3-Cyano-2-(3-furan-2-yl-propanoylamino)-4,7-dihydro-5H-thieno[2,3-c]pyridine-6-carboxylic acid 2-pyridin-2-yl-ethyl ester] | ≥ 6.52
2 | < 4.00 | N#Cc1c(NC(=O)CCc2cccnc2)sc2c1CCN(C(=O)OCCc1ccccn1)C2 [Example 46, 3-Cyano-2-(3-pyridin-3-yl-propanoylamino)-4,7-dihydro-5H-thieno[2,3-c]pyridine-6-carboxylic acid 2-pyridin-2-yl-ethyl ester] | 5.70 to 6.52
3 | < 4.00 | CCOC(=O)N1CCc2c(sc(NC(=O)CC(C)(C)c3ccccc3)c2C#N)C1 [Example 47, 3-Cyano-2-(3-methyl-3-phenyl-butanoylamino)-4,7-dihydro-5H-thieno[2,3-c]pyridine-6-carboxylic acid ethyl ester] | ≥ 6.52
4 | < 4.00 | CCOC(=O)N1CCc2c(sc(NC(=O)C3CC3c3ccco3)c2C#N)C1 (stereo not drawn) [Example 48, 3-Cyano-2-{[1-(2-furan-2-yl-cyclopropyl)-methanoyl]-amino}-4,7-dihydro-5H-thieno[2,3-c]pyridine-6-carboxylic acid ethyl ester] | ≥ 6.52
5 | < 4.00 | N#Cc1c(NC(=O)CCc2ccccc2)sc2c1CCN(C(=O)OCCN1CCOCC1)C2 [Example 50, 3-Cyano-2-(3-phenyl-propanoylamino)-4,7-dihydro-5H-thieno[2,3-c]pyridine-6-carboxylic acid 2-morpholin-4-yl-ethyl ester] | ≥ 6.52
6 | < 4.00 | N#Cc1c(NC(=O)CCc2ccco2)sc2c1CCN(C(=O)OCCN1CCOCC1)C2 [Example 51, 3-Cyano-2-(3-furan-2-yl-propanoylamino)-4,7-dihydro-5H-thieno[2,3-c]pyridine-6-carboxylic acid 2-morpholin-4-yl-ethyl ester] | ≥ 6.52
7 | < 4.00 | N#Cc1c(NC(=O)CCc2ccccc2)sc2c1CCN(C(=O)OCCn1ccnc1)C2 [Example 54, 3-Cyano-2-(3-phenyl-propanoylamino)-4,7-dihydro-5H-thieno[2,3-c]pyridine-6-carboxylic acid 2-imidazol-1-yl-ethyl ester] | ≥ 6.52
8 | < 4.00 | N#Cc1c(NC(=O)CCc2ccco2)sc2c1CCN(C(=O)OCCO)C2 [Example 55, 3-Cyano-2-(3-furan-2-yl-propanoylamino)-4,7-dihydro-5H-thieno[2,3-c]pyridine-6-carboxylic acid 2-hydroxy-ethyl ester] | ≥ 6.52
9 | < 4.00 | N#Cc1c(NC(=O)CCc2ccccn2)sc2c1CCN(C(=O)OCCc1cccnc1)C2 [Example 107, 3-Cyano-2-(3-pyridin-2-yl-propanoylamino)-4,7-dihydro-5H-thieno[2,3-c]pyridine-6-carboxylic acid 2-pyridin-3-yl-ethyl ester] | 5.70 to 6.52
